According to PubChem BioAssay (NCI):
“And” between values parts separate entries of the source, which are not always exact repeats. Identical values can stand only once.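 Five compound concentrations were applied to cells in 96-well plates for 48 hours; endpoints were derived by simple linear interpolation of the resulting dose-response curve. GI50 marks 50% less growth. TGI: concentration producing complete growth inhibition.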

Columns and labels:
Assay in all cases: inhibition of tumour cell growth, NCI panel, 48 h
[1] = tested on: A549 NSCLC
[2] = tested on: HCT-15 colon
[3] = tested on: HT29 colon
[4] = tested on: LOX IMVI melanoma
[5] = tested on: SF-295 CNS
[6] = tested on: SNB-19 CNS
[7] = tested on: SR leukemia
[8] = tested on: UACC-257 melanoma
[9] = tested on: BT-549 breast
[10] = tested on: SNB-75 CNS

c1nc2cscc2c2cscc12
TGI [1]: > 100 µM
TGI [2]: > 100 µM
TGI [3]: > 100 µM
TGI [4]: > 100 µM
TGI [5]: > 100 µM
TGI [6]: > 100 µM
TGI [7]: > 100 µM
TGI [8]: > 100 µM

O=C1/C(=C/c2ccc(O)c([N+](=O)[O-])c2)CCC/C1=C\c1ccc(O)c([N+](=O)[O-])c1
GI50 [1]: 25.5 µM
TGI [1]: 32.4 µM and 91.7 µM
GI50 [9]: 2.83 µM
TGI [9]: 36.6 µM and 9.46 µM
GI50 [2]: 9.77 µM
TGI [2]: 36.5 µM and 37.2 µM
GI50 [3]: 19 µM
TGI [3]: 30.7 µM and 37.6 µM
TGI [4]: 23.2 µM
TGI [5]: 50 µM and > 100 µM
GI50 [6]: 17.1 µM
TGI [6]: 28.7 µM and 35.2 µM
TGI [10]: 6.65 µM
GI50 [8]: 15.5 µM
TGI [8]: 44.3 µM and 37.7 µM

COc1ccc(/C=C\c2cc(OC)c(OC)c(OC)c2)cc1OC(=O)C(N)CCC(=O)O (configuration not stated)
GI50 [1]: 0.00398 µM and 0.0108 µM
TGI [1]: 28.4 µM and > 100 µM
TGI [9]: 0.00299 µM
TGI [3]: > 37.9 µM and 46.2 µM
GI50 [4]: 0.000605 µM and 0.000284 µM and < 0.0001 µM
TGI [4]: > 33.9 µM
GI50 [6]: 0.000828 µM and 0.000281 µM and < 0.0001 µM
TGI [6]: > 100 µM
GI50 [7]: 0.000532 µM
GI50 [8]: 0.000603 µM
TGI [8]: 22.8 µM

COc1ccc(/C=C2\CN(C(=O)C(Cl)Cl)C/C(=C\c3ccc(OC)c(OC)c3)C2=O)cc1OC
GI50 [1]: 1.28 µM
TGI [1]: > 100 µM
GI50 [9]: 0.535 µM
TGI [9]: 2.98 µM
GI50 [2]: 0.069 µM
TGI [2]: 0.446 µM
GI50 [3]: 0.0781 µM
GI50 [4]: 0.0282 µM
TGI [4]: 0.0965 µM
GI50 [5]: 0.243 µM
TGI [5]: 0.803 µM
GI50 [10]: 0.651 µM
TGI [10]: > 100 µM
GI50 [7]: 0.0352 µM
TGI [7]: > 100 µM

[N-]=[N+]=C(C(=O)OCC#CCOC(=O)C(=[N+]=[N-])S(=O)(=O)c1ccccc1)S(=O)(=O)c1ccccc1
TGI [1]: > 10 µM
TGI [9]: > 10 µM
TGI [2]: > 10 µM
TGI [3]: > 10 µM
TGI [4]: > 10 µM
TGI [5]: > 10 µM
TGI [6]: > 10 µM
TGI [10]: > 10 µM
TGI [8]: > 10 µM

Clc1ccc(-n2nnc(C3=NCCCN3)c2-c2ccccc2)cc1
TGI [1]: > 100 µM
TGI [2]: > 100 µM
TGI [3]: > 100 µM
TGI [4]: > 100 µM
TGI [5]: > 100 µM
TGI [6]: > 100 µM
TGI [10]: > 100 µM
TGI [7]: > 100 µM
TGI [8]: > 100 µM

O=C(c1cc(F)c(Cl)cc1Cl)N1N=C(c2ccccc2)CC1(O)c1ccccc1 (configuration not stated)
GI50 [1]: 27.8 µM
TGI [1]: > 100 µM
GI50 [9]: 17.7 µM
TGI [9]: 40.5 µM
GI50 [2]: 13.8 µM
TGI [2]: 28.3 µM
GI50 [3]: 12.1 µM
TGI [3]: 25.3 µM
GI50 [4]: 17.1 µM
TGI [4]: 30.8 µM
GI50 [5]: 32.9 µM
TGI [5]: > 100 µM
GI50 [6]: 29.2 µM
TGI [6]: 93.7 µM
GI50 [10]: 20.7 µM
TGI [10]: 59.6 µM
GI50 [8]: 24.7 µM
TGI [8]: 51.6 µM

CCCCCCCCCNCCCCCCCCC
GI50 [1]: 2.04 µM
TGI [1]: 4.08 µM
GI50 [9]: 1.93 µM
TGI [9]: 3.38 µM
GI50 [2]: 1.79 µM
TGI [2]: 3.47 µM
GI50 [3]: 1.27 µM
TGI [3]: 2.88 µM
GI50 [4]: 1.61 µM
TGI [4]: 3.02 µM
GI50 [5]: 1.74 µM
TGI [5]: 3.29 µM
GI50 [6]: 2.78 µM
TGI [6]: 9.83 µM
GI50 [10]: 1.57 µM
TGI [10]: 3.38 µM
GI50 [8]: 1.93 µM
TGI [8]: 3.61 µM

COC(=O)/C=C(C)/C=C/c1cc(C(C)=O)c(C)o1
TGI [1]: > 100 µM
TGI [2]: > 100 µM
TGI [3]: > 100 µM
TGI [4]: > 100 µM
TGI [5]: > 100 µM
TGI [6]: > 100 µM
TGI [10]: > 100 µM
TGI [7]: > 100 µM
TGI [8]: > 100 µM
